Assays:
Format in all cases: cell-based
[1] = system: TNFα induced ACH-2 cells (HIV IIIB provirus); assay: ACH-2 latent infection assay, supernatant reverse transcriptase activity; set-up: % VC (percent of virus control): unit not given here; settings: exp 2
Method: (§1) U1 and ACH-2 cells were obtained from the AIDS Research and Reference Reagent Program and maintained under standard culture conditions in RPMI 1640 supplemented with 10% fetal bovine serum (heat inactivated), supplemented with 2 mM […], 100U/ml penicillin and 100 μg/ml, streptomycin. U1 cells were derived from the histocytic leukemia cell line U937, and contain a single integrated copy (HIV IIIB) […] a cytokine and/or phorbol inducible provirus. ACH-2 cells are derived from the A3.01 T lymphoblastic cell line, and contain 2 copies of the HIV IIIB provirus, however only one is cytokine and/or phorbol inducible. Cultures were maintained in such a way as to ensure exponential growth of the populations. At the time of the assay, cells were collected by centrifugation and counted by hemacytometer. If cell viability by Trypan Blue dye exclusion was less than 70% the assay was terminated. The cells were adjusted to 5×10^4 cells/mL and 100 μL, placed in 96 well plates with 100 μL media containing a final concentration of […] TNFα and the test compound. Cultures were incubated for 3 days and supernatants harvested. Compound toxicity was determined by MTS dye reduction. Virus expression was measured by supernatant reverse transcriptasc activity.
Reverse transcriptase activity was measured in cell-free supernatants. Tritiated thymidine triphosphate (NEN) (TTP) was resuspended in distilled H2O at 5 Ci/mL. Poly rA and oligo dT were prepared as a stock solution which was kept at −20° C. The RT reaction buffer was prepared fresh on a daily basis and consists of 125 μL 1.0 M EGTA, 125 μL dH2O, 110 μL 10% SDS, 50 μL 1.0 M Tris (pH 7.4), 50 μL, 1.0 M DTT, and 40 μL 1.0 M MgCl2. These three solutions were mixed together in a ratio of 2 parts TTP, 1 part poly rA:oligo dT, and 1 part reaction buffer. Ten microliters of this reaction mixture was placed in a round bottom microtiter plate and 15 μL of virus containing supernatant was added and mixed. The plate was incubated at 37° C. in a water bath with a solid support to prevent submersion of the plate and incubated for 60 minutes. Following reaction, the reaction volume was spotted onto pieces of DE81 paper, washed 5 times for 5 minutes each in a 5% sodium phosphate buffer, 2 times for 1 minute each in distilled water, 2 times for 1 minute each in 70% ethanol, and then dried. Opti-Fluor O was added to each sample and incorporated radioactivity was quantitated utilizing a Wallac 1450 Microbetaplus liquid scintillation counter.

HIV = assay: HeLa CD4 LTR β-gal time of addition assay; settings: single round, high M.O.I.
Text: This time of addition assay measures reproducible events from initial virus binding to the trans activation of the β-galactosidase reporter by newly produced Tat protein. This is a single round of infection assay and is thus “cleaner” and more “precise” than a multi-round time of addition assay. […] Since it is hypothesized that the K and Z compounds work by interfering with virus transcription the later possibility seems more likely. Thus the use of a time of addition assay with PBMCs was utilized.

HeLa CD4 LTR β-gal cells = assay: Cytotoxicity for HeLa CD4 LTR β-gal cells; settings: initial testing
Method: (§2) At assay termination the assay plates were stained with the soluble tetrazolium-based dye MTS (CellTiter® Reagent, Promega) to determined cell viability and quantify compound toxicity. […] At termination of the assay 20 μL of MTS reagent was added per well. The wells were incubated for 4 h at 37° C., 5% CO2. Adhesive plate scalers were used in place of the lids, the sealed plate was inverted several times to mix the soluble formazan product and the plate was read spectrophotometrically at 490 nm with a 650 nm reference wavelength on a Molecular Devices Vmax plate reader.
This cell line represents one of 3 standard models for performing time of addition assays.

ACH-2 cells = assay: ACH-2 assay, compound toxicity by MTS dye reduction; set-up: Y. CC / 9′. CC: unit not given here; settings: exp 2
Method: as §2, §1

Substance: Potassium Iodiscorbate [Compound K]
- % VC (percent of virus control) ([1]; 0.00063 uM): 114.4
- RT ACTIVITY (cpm) MEAN ([1]; 0.00063 uM): 22470 cpm
- % VC (percent of virus control) ([1]; 0.002 uM): 98.0
- RT ACTIVITY (cpm) MEAN ([1]; 0.002 uM): 19246 cpm
- % VC (percent of virus control) ([1]; 0.00625 uM): 105.2
- RT ACTIVITY (cpm) MEAN ([1]; 0.00625 uM): 20672 cpm
- % VC (percent of virus control) ([1]; 0.02 uM): 125.7
- RT ACTIVITY (cpm) MEAN ([1]; 0.02 uM): 24682 cpm
- % VC (percent of virus control) ([1]; 0.0625 uM): 119.1
- RT ACTIVITY (cpm) MEAN ([1]; 0.0625 uM): 23403 cpm
- % VC (percent of virus control) ([1]; 0.2 uM): 115.0
- RT ACTIVITY (cpm) MEAN ([1]; 0.2 uM): 22593 cpm
- % VC (percent of virus control) ([1]; 0.625 uM): 97.7
- RT ACTIVITY (cpm) MEAN ([1]; 0.625 uM): 19189 cpm
- % VC (percent of virus control) ([1]; 2 uM): 93.6
- RT ACTIVITY (cpm) MEAN ([1]; 2 uM): 18381 cpm
- % VC (percent of virus control) ([1]; 6.25 uM): 32.7
- RT ACTIVITY (cpm) MEAN ([1]; 6.25 uM): 6432 cpm
- % VC (percent of virus control) ([1]; 20 uM): 15.3
- RT ACTIVITY (cpm) MEAN ([1]; 20 uM): 3011 cpm
- % VC (percent of virus control) ([1]; 62.5 uM): 0.58
- RT ACTIVITY (cpm) MEAN ([1]; 62.5 uM): 113 cpm
- % VC (percent of virus control) ([1]; 200 uM): 0.55
- RT ACTIVITY (cpm) MEAN ([1]; 200 uM): 108 cpm
- inhibition of HIV replication (HIV): failed to inhibit
- cytotoxic effects on the HeLa CD4 LTR β-gal cells (HeLa CD4 LTR β-gal cells): no significant cytotoxic effects
- TOXICITY VALUES (MTS) MEAN (ACH-2 cells; 0.00063 uM): 0.990 O. D.
- Y. CC (ACH-2 cells; 0.00063 uM): 78.2
- TOXICITY VALUES (MTS) MEAN (ACH-2 cells; 0.002 uM): 1.004 O. D.
- Y. CC (ACH-2 cells; 0.002 uM): 79.3
- TOXICITY VALUES (MTS) MEAN (ACH-2 cells; 0.00625 uM): 1.000 O. D.
- Y. CC (ACH-2 cells; 0.00625 uM): 78.9
- TOXICITY VALUES (MTS) MEAN (ACH-2 cells; 0.02 uM): 0.943 O. D.
- Y. CC (ACH-2 cells; 0.02 uM): 74.4
- TOXICITY VALUES (MTS) MEAN (ACH-2 cells; 0.0625 uM): 0.891 O. D.
- Y. CC (ACH-2 cells; 0.0625 uM): 70.3
- TOXICITY VALUES (MTS) MEAN (ACH-2 cells; 0.2 uM): 0.830 O. D.
- Y. CC (ACH-2 cells; 0.2 uM): 65.6
- TOXICITY VALUES (MTS) MEAN (ACH-2 cells; 0.625 uM): 0.826 O. D.
- Y. CC (ACH-2 cells; 0.625 uM): 65.2
- TOXICITY VALUES (MTS) MEAN (ACH-2 cells; 2 uM): 0.694 O. D.
- Y. CC (ACH-2 cells; 2 uM): 54.8
- TOXICITY VALUES (MTS) MEAN (ACH-2 cells; 6.25 uM): 0.208 O. D.
- Y. CC (ACH-2 cells; 6.25 uM): 16.4
- TOXICITY VALUES (MTS) MEAN (ACH-2 cells; 20 uM): 0.040 O. D.
- Y. CC (ACH-2 cells; 20 uM): 3.2
- TOXICITY VALUES (MTS) MEAN (ACH-2 cells; 62.5 uM): 0.020 O. D.
- Y. CC (ACH-2 cells; 62.5 uM): 1.6
- TOXICITY VALUES (MTS) MEAN (ACH-2 cells; 200 uM): 0.028 O. D.
- Y. CC (ACH-2 cells; 200 uM): 2.2

Source: patent US20030181436A1, “Treatment for AIDS, HIV, and other related diseases and compounds for use therewith” (priority 2001, published 2003)
